According to patent US20060035811A1, “Methods of treating dry eye disease with lantibiotics” (priority 2002, published 2006):

Tested on: New Zealand (albino) rabbits
Experiment: Tear secretion in albino rabbits after topical instillation (Schirmer strips)
Type: in vivo
Conditions: for Tear secretion % Mean (% of baseline) / Tear secretion (mm) Mean: 1×50 microliters, right eye
Description: New Zealand (albino) rabbits were the experimental model used to test the action of duramycin. Four animals were involved for each formulation: Duramycin was used in a formulation at 0.5 mg/ml dissolved in saline (0.9% sodium chloride) at pH between 6 and 7 and was compared with 0.9% sodium chloride and with 0.9% sodium chloride at pH between 6 and 7 (vehicle). Animals were randomly allocated into 3 groups of 4 animals each by a computer controlled program.
Aliquots (1×50 microliters) were administered using a micropipette into the right eyes while the left eyes remained untreated. Sampling was performed in the right eyes for a constant interval of 15 seconds before the instillation and at 15, 30, 60, 120, and 180 minutes after instillation. Tear secretion was collected and measured on treated eyes using Schimer strips.
Tear secretion, measured as the tear migration onto Schirmer strips for 15 seconds, was expressed in millimeters (mm) and in percents (%) of baseline values. The % of baseline values was the mean of individual %. T max is the time when the maximum mean value is obtained and is expressed in minutes (min).
Mean AUC0-180 min value (area under the curve from baseline to 180 min) is the mean of individual AUC0-180 min values calculated using the trapezoidal rule and is expressed in mm×min and in %×min.

[1] = 15 min after instillation, 0.5 mg/ml
[2] = 30 min after instillation, 0.5 mg/ml
[3] = 60 min after instillation, 0.5 mg/ml
[4] = 120 min after instillation, 0.5 mg/ml
[5] = 180 min after instillation, 0.5 mg/ml
[6] = baseline to 180 min, trapezoidal rule, mean of individual values, 0.5 mg/ml

duramycin
Tear secretion % Mean (% of baseline) (0 min (before instillation, baseline), 0.5 mg/ml): 100.0%
Tear secretion (mm) Mean (0 min (before instillation, baseline), 0.5 mg/ml, Schirmer strip 15 seconds): 2.8 mm
Increase of tear secretion compared with saline, based on AUC0-180 min in % (0.5 mg/ml vs saline treatment): 3.56 times
Increase of tear secretion compared with saline, based on AUC0-180 min in mm (0.5 mg/ml vs saline treatment): 1.92 times
Increase of tear secretion compared with saline, based on maximum value in % (0.5 mg/ml vs saline treatment): 4.59 times
Increase of tear secretion compared with saline, based on maximum value in mm (0.5 mg/ml vs saline treatment): 2.47 times
Tear secretion % Mean (% of baseline) [1]: 329.2%
Tear secretion (mm) Mean [1]: 6.0 mm
Tear secretion % Mean (% of baseline) [2]: 459.4%
Tear secretion (mm) Mean [2]: 9.4 mm
Tear secretion % Mean (% of baseline) [3]: 260.4%
Tear secretion (mm) Mean [3]: 4.8 mm
Tear secretion % Mean (% of baseline) [4]: 157.3%
Tear secretion (mm) Mean [4]: 3.5 mm
Tear secretion % Mean (% of baseline) [5]: 245.8%
Tear secretion (mm) Mean [5]: 4.9 mm
Tmax (time when the maximum mean tear secretion is obtained) (after instillation, 0.5 mg/ml): 30 min
AUC 0-180 of tear secretion [6]: 891.6 mm × min
AUC 0-180 of tear secretion (% of baseline) [6]: 44554.7 % × min
